In US11046945B2, “Labeled glutaminase proteins, isolated glutaminase protein mutants, methods of use, and kit” (CORNELL UNIVERSITY, priority 2013, dated 2021):

Biological target: T1, GAC (Mus musculus, UniProt D3Z7P3)
T1 construct: plasmid (residues 72-603 for GAC, 72-674 for KGA); His-tag with thrombin cleavage site (N, cleaved yes); made in house; host or cells: pET23a vector
T1 sequence (D3Z7P3 72-603 isoform D3Z7P3-2): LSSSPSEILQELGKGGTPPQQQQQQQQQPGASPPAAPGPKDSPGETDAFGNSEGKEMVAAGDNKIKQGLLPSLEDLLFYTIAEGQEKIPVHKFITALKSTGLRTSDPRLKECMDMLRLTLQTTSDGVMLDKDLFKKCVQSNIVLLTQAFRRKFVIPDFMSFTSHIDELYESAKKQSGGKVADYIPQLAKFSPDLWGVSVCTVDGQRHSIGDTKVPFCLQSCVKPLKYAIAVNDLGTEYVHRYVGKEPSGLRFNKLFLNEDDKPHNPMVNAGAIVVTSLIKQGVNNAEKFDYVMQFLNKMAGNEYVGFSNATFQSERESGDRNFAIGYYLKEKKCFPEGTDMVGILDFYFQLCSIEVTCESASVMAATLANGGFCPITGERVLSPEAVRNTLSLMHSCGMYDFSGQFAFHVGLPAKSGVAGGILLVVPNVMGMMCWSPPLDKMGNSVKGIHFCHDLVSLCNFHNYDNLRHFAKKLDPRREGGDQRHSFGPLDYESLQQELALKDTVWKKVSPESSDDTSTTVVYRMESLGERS
Experiment: Real-time glutaminase activity assay coupled to GDH (NADH fluorescence)
Format: biochemical
Settings: for inhibition of GAC activity: 10 nM 488-GAC or unlabeled WT-GAC, 20 mM glutamine, 50 mM phosphate
Protocol: [formula] where F is the normalized fluorescence at given drug concentration (i.e., F/F0), and Fsat is the normalized fluorescence at saturating concentrations of drug, as shown in FIG. 7A. Real-time activity assays were prepared in 1 mL samples, where 10 units of glutamate dehydrogenase (Sigma) and 2 mM NAD^+ (Sigma) was prepared in 50 mM Tris-Acetate pH=8.5, 0.1 mM EDTA and equilibrated at 20° C. 10 nM WT GAC was added and allowed to equilibrate 2 minutes before beginning to monitor fluorescence of 488-GAC (490 nm excitation, 520 nm emission) and NADH fluorescence (340 nm excitation, 490 nm emission). Appropriate dilutions of 968 or BPTES prepared in DMSO were injected after 30 seconds and allowed to equilibrate for 2 minutes before 180 μL of a solution of 333 mM K2HPO4, 133 mM glutamine, 50 mM Tris-Acetate pH 8.5, 0.1 mM EDTA was added to initiate GAC activation. The activity of GAC was indirectly measured by the NADH produced by the added glutamate dehydrogenase, which converts the product of glutaminase activity, glutamate, to α-ketoglutarate and ammonia through reducing NAD^+ to NADH. Because solutions containing glutamine undergo non-enzymatic degradation to glutamate, samples were further analyzed by subtracting the evolved NADH produced by glutaminase in the presence of 968, BPTES, or the equivalent volume of DMSO as a control, by the evolved NADH produced in the absence of glutaminase under identical experimental conditions. Evolved NADH was quantified using a standard curve of freshly prepared NADH (Sigma) in 50 mM Tris-Acetate pH=8.5, 0.1 mM EDTA.
Procedures for the described real-time binding and inhibition assays were adapted for 96-well microtiter format with minor alterations. Briefly, 2 μL of inhibitor or DMSO was distributed across the 96-well plate followed by addition of 200 μL 10 nM 488-GAC, unlabeled WT-GAC, or no added GAC as a negative control in 50 mM Tris-Acetate pH 8.5, 0.1 mM EDTA and immediate monitoring of 488 fluorescence (490 nm/520 nm excitation/emission, 5 nm/20 nm excitation/emission slits). […]

inhibition of GAC activity	inhibition of GAC activity at 5 nM versus 50 nM GAC (GAC decreased from 50 nM to 5 nM, 968 pre-incubated)	SMILES
potent inhibition		O=C(Cc1ccccc1)Nc1nnc(CCSCCc2nnc(NC(=O)Cc3ccccc3)s2)s1 [BPTES]
dose-dependent inhibition	higher efficacy and potency	CN(C)c1ccc(C2Nc3ccc4ccccc4c3C3=C2C(=O)CC(C)(C)C3)cc1Br (stereo not drawn) [compound 968]
